Measured values reported in patent publication US20150141460A1, “Anti-inflammatory Compositions” (Cambridge Enterprise Limited, priority 2007, published 2015).
pEC50: −log10 of the molar value.

What was measured:
[1] = Pharmacokinetics following a single dose in rat (1 mg/kg iv, 3 mg/kg oral), LC-MS/MS, one-compartment model; type: in vivo
Description: Compounds were administered as a single dose (either 1 mg/kg bodyweight in 5% DMSO via the intravenous route or 3 mg/kg in 1% carboxymethylcellulose via the oral route) to three adult rats (using different rats for each compound and each route of administration).
Blood was then sampled at various time points (including just prior to dose administration) out to 24 hrs post dose, and the level of the various compounds was assessed using a validated LC-MS/MS assay. Briefly, 3-5 μl of the deproteinised sample was applied to a Waters Atlantis (C18 20×2.1 mm, 3 μm bead size) reverse phase chromatography column equilibrated in 0.1% formic acid in 95:5 water:actetonitrile. Over 3.5 minutes bound material was gradient eluted reaching 0.1% formic acid in 5:95 water:acetonitrile, followed by a step gradient back to 0.1% formic acid in 95:5 water:acetonitrile. The column eluent was then directed to an Applied Biosystems API 4000/3200 QTrap MS/MS mass spectrometer, with a TurboIonspray™ ion source operating in positive ion mode. The interface temperature was set at 650° C., with a 40 ms dwell time for each MRM transition, monitoring the following ions:
The internal standard in each determination was the related compound (S)-3-(2′,2′-dimethyl-propanoylamino)-caprolactam, which was spiked into the sample prior to deproteinization. The lower limit of quantitation (LLOQ) for this assay was 2.4 ng/ml for each compound except (I′), where it was 38.1 ng/ml.
Following LC-MS/MS analysis of each collected sample, the pharmacokinetic disposition of the compound was modelled using Kinetica software, a well known software package for such applications.
Compounds (VI) and (VII) were subject to pharmacokinetic analysis in rat using exactly the same protocols previous applied for compounds (I) through (V) in example 1.
We therefore subjected (VIII) to pharmacokinetic analysis in rat using exactly the same protocols previous applied for compounds (I′) through (VII) in examples 1 and 7.
The isolated (R)-enantiomer of (I) was therefore synthesised (exactly as described herein for the isolated (S)-enantiomer, but replacing the (S)-ornithine starting material with commercially available (R)-ornithine of high stereochemical purity), and the PK properties of this agent, in rat, was determined using the identical methodology described above (see Examples 1, 7 and 8).

[2] = tested on: RANTES induced migration of THP-1 cells; experiment: ChemoTx transwell migration assay, RANTES induced migration of THP-1 cells; type: cell-based; details: Homo sapiens; THP-1 cell line; maximal dose of chemoattractant; read-out: ED50 RANTES induced migration
Description: In principle, this assay consists of two chambers separated by a porous membrane. The chemoattractant is placed in the lower compartment and the cells are placed in the upper compartment. After incubation for a period at 37° C. the cells move towards the chemoattractant, and the number of cells in the lower compartment is proportional to the chemoattractant activity (relative to a series of controls).
Next, the chemoattractant solution to be placed in the lower compartment is prepared. For example, MCP-1 is diluted in GBSS+BSA to give a final concentration of 25 ng/ml. This is divided into two pots, as for the cell suspension. To one pot, the test compound is added to the same final concentration as was added to the cell suspension, while to the other pot an equal volume of GBSS+BSA plus vehicle as appropriate (e.g., not more than 1% DMSO) is added. Alternatively, other chemokines may be used (SDF-1α at 7.5 ng/ml; RANTES at 50 ng/ml; IL-8 at 10 ng/ml using neutrophils as the target cell population). […]
The impact of the test substance is calculated by comparing the chemoattractant-induced migration which occurred in the presence or absence of various concentrations of the test substance. Typically, the inhibition of migration is expressed as a percentage of the total chemoattractant-induced migration which was blocked by the presence of the compound. […]

CC(C)(C)C(=O)N[C@H]1CCCNC1=O [Compound (I′), (S)-3-(2′,2′-dimethylpropanoylamino)-tetrahydropyridin-2-one]
clearance, times lower than for the other lactam BSCIs [1]: more than 10 times
plasma half-life, fold longer than the other compounds [1]: 10 fold
AUC(0-t) ([1]; blood, single oral dose 3 mg/kg in 1% CMC, Tables 7-9, read-out: Exposure (min · ng/ml), oral exposure AUC 0-t (converted)): 15600 ng·h/mL
oral exposure, fold higher than the next best compound (V) ([1]; oral 3 mg/kg): ~20 fold
pEC50 [2]: 10.10

O=C1NCCCC[C@@H]1NC(=O)C12CC3CC(CC(O)(C3)C1)C2 [Compound (V), 3-(3′-hydroxyadamantyl-1-carbonylamino)-caprolactam]
minor t½β [1]: 1.83 h
pEC50 [2]: 9.60
